Data on one substance can be found in patent US20190105369A1, “CD31SHED AGONISTS FOR USE IN THE PREVENTION AND/OR TREATMENT OF REPERFUSION INJURY” (INSTITUT NATIONAL DE LA SANTE ET DE LA RECHERCHE MEDICAL …, priority 2016, published 2019).

Assay [1] relates to apolipoprotein E knockout mice. Put plainly: Model of myocardial ischemia-reperfusion (coronary artery ligation 45 min, reperfusion 24 h). The format is in vivo. How it is done:
FIG. 2: Effect of P8RI (10 mg/Kg P8RI by subcutaneous injection, 2 minutes prior to reperfusion) on the area at risk and size of myocardial infarction in apolipoprotein E knockout mice (female, 18 week-old) subjected to 45 minutes of ischemia by ligation of the coronary artery, followed by 24 hours of reperfusion. […] P8RI: mice receiving P8RI (n=5); Control: mice receiving a similar volume of vehicle (PBS) without P8RI (n=5). T-Test.
In order to reproduce the ischemia-reperfusion injury in the setting of coronary atherosclerosis (as it occurs in patients) were used 18 week-old female apolipoprotein E knockout mice (N=12/group) which typically develop coronary atherosclerosis by the age of 16 week (Caligiuri et al., Atherosclerosis. 1999 August;145(2):301-8). Mice were subjected to surgical ligation of the left main coronary artery, according to the method described by Michael et al. (Am J Physiol. 1995 December;269(6 Pt 2):H2147-54). After 43 minutes of ischemia, the mice received either P8RI (10 mg/kg) or the vehicle (PBS) by subcutaneous injection and 2 minutes later the ischemic area was reperfused by reopening of the ligated coronary artery. The next day, the mice were re-anesthetized, the chest reopened and the coronary ligature re-tied; the coronary tree was then rinsed with 2 ml of PBS pushed in the coronary tree through retrograde cannulation of the left carotid artery and the non-ischemic area stained by the injection of 50 μl of evan's blue (3% in PBS) in the same cannula. The heart was then quickly removed from the chest and immersed in a saturated KCl solution (to stop the heart in diastole) and rinsed in PBS. […] Each slice was photographed and the area at risk (AAR, negatively stained by the evan's blue) and the necrotic area (MI, negatively stained in red by the TTC solution) were then measured by computer-assisted image analysis.
The AAR, expressed as % of the left ventricle (LV) surface and the necrotic area (MI, expressed as percentage of the AAR and of the LV) were calculated on each slice. The data shown in FIG. 2 are expressed as mean±SEM.

Assay [2] deals with human platelet. The note with it: cited from earlier work.
The test system of assay [3] is thrombin generation. Particulars: cited from earlier work.
The subject of assay [4] is Rats. Put plainly: Model of mesenteric ischemia-reperfusion (mesenteric artery clamped 30 minutes, reperfusion 4 hours). It is filed as in vivo. How it is done: Rats are anesthetized by urethane I.P. A catheter is introduced in the right jugular vein for venous sampling, treatment administration, and solute perfusion (NaCl 0.9%, 10 μl/H/g b.w.) during all the experimental period. A catheter is introduced in the left internal carotid artery for arterial blood pressure monitoring and another one in the bladder for urine collection. […] The aortic ostium of the mesenteric artery is controlled. The intravenous administration of the peptide is initiated 5 minutes before clamping the mesenteric artery and after blood sampling (T0). Then, the mesenteric artery is clamped (total occlusion) for 30 minutes creating mesenteric ischemia. Blood sampling is performed at the end of the mesenteric ischemia period (T0.5). The mesenteric artery is then unclamped and reperfusion is follow-up to 4 hours. New blood samplings are performed each hour (T1.5, 2.5, 3.5, 4.5). The animal is sacrificed at the end of the experimental period after a last blood sampling. Urines are collected and diuresis measured each hour. At sacrifice, the ischemic intestine is sampled. One fragment is extruded in order to measure hemoglobin content. The other one is fixed in paraformaldehyde for histology. Several intermediary biological criteria are use in order to characterize the ischemia-reperfusion injury and to evaluate the beneficial effect of the CD31^shed agonist peptide: plasma and urinary free DNA (Picogreen fluorescent intercalant, Invitrogen), from neutrophil origin, traducing neutrophil activation and death, intra-intestinal lumen hemoglobin content (acid formic reaction, Calbiochem kit), traducing epithelial injury, Myeloperoxidase (MPO) content in the intestinal mucosa, reflecting the local accumulation and activation of neutrophils, plasma soluble p-selectin and MMP9 content, reflecting systemic neutrophil activation, as p-selectin is released by a cleavage from the surface of activated neutrophils (and platelets) and MMP9 is contained in the azurofilic granules of the neutrophils and is released early upon neutrophil degranulation. Finally, the extent of mucin film protection was evaluated by histology of the intestinal wall (Alcian blue staining).

[5] abbreviates: 10 mg/kg subcutaneous, 2 minutes prior to reperfusion, 24 hours of reperfusion, vs vehicle (PBS).
Where [6] appears, read: intravenous perfusion, vs controls.
[7] abbreviates: mesenteric artery transient occlusion model.

Entries after “also recorded” stand apart in the source; their conditions may differ. Non-standard residues stand in square brackets, D forms with d. No end group written: not given here.

As for “kwpalfvr ([dK][dW][dP][dA][dL][dF][dV][dR]) [Peptide P8RI, CD31shed agonist]”, in assay [1] (setting [5]), the “size of myocardial infarction (MI) as percentage of the area at risk (AAR)” value is reported as “significantly effective in reducing” and the “size of myocardial infarction (MI) as percentage of the left ventricle (LV)” value is given as “significantly effective in reducing”. Besides, the “size of the necrotic areas” value in assay [1] (administration during the ischemia-reperfusion period, vs non-treated control mouse) is on record as “strongly decrease”. For the same substance, the human platelet aggregation entry in assay [2] was “reduces”. The thrombin generation result in assay [3] was “reduces”. The “hemoglobin content in the intestine lumen” value in assay [4] (intravenous perfusion, at sacrifice, controls 317.1±93.27) is 129.4±47.39 μg/mg prot. The “epithelial villosity abrasion, epithelium desquamation” value in assay [4] (intravenous perfusion, histology) is “protect”. Further, in assay [4] (intravenous perfusion, vs control rats, data not shown), the “mucin / mucus film integrity (histology of the intestinal wall, Alcian blue staining)” value is given as “histological conservation of mucus; also recorded: preserved most of the mucin film”. In addition, in assay [4] (setting [6]), the “free hemoglobin within the intestinal lumen (ratio, normalized by total protein content)” value is listed as “decreased”; the “free myeloperoxidase MPO in the intestinal mucosa (direct ELISA, optical density)” value is listed as “decreased; also recorded: significantly decrease”; the “plasma MMP9, cumulative concentration (area under the curve of the different time points)” value is “decreased; also recorded: significantly decrease”. In addition, the “free DNA in the plasma over time” value in assay [4] (intravenous, initiated 5 minutes before clamping, vs control rats) is “arrest of the progressive increase; also recorded: remains low and similar to sham-operated rats; also recorded: significantly reduces the progressive increase”. Also, the “urinary free DNA” value in assay [4] (intravenous, initiated 5 minutes before clamping, vs controls) is “reduced; also recorded: significantly reduces the progressive increase”. In assay [4] (setting [7]), the “LPS secretion in blood” value is “decrease”, the bacterial translocation result is recorded as “prevented” and the intestinal necrosis entry is recorded as “prevented”.
